Molecular target: Histone-lysine N-methyltransferase ASH1L (Homo sapiens, UniProt Q9NR48)
Assay: Inhibition of MOCR-fused ASH1L SET-BAH ( 2069 to 2833 amino acids) (unknown origin) expressed as in Escherichia coli BL21 (DE3) T1R cells using SAM and chicken mono/dinucleosomes incubated for 1 hr by scintillation counting assay

IC50 [µM]	Structure (SMILES)
20 to 100	COCc1cc2c(-c3cccc(C(N)=S)c3)ccc(O)c2[nH]1
> 100	NC(=S)c1cccc(-c2cccc(O)c2)c1
20 to 100	NC(=S)c1cccc(-c2ccc(O)c3[nH]ccc23)c1
20 to 100	NC(=S)c1cccc(-c2cn(Cc3cn[nH]c3)c3cc(N)ccc23)c1
> 100	NC(=S)c1cccc(-c2ccccc2O)c1
< 20	NC(=S)c1cccc(-c2cn(CC(CF)CF)c3cc(O)ccc23)c1
> 100	NC(=S)c1cccc(-c2cccc3[nH]c(CO)cc23)c1
> 100	Cc1cc(O)cc(C)c1-c1cccc(C(N)=S)c1
< 20	NC(=S)c1cccc(-c2cn(CC3(F)CC3)c3cc(CO)ccc23)c1
> 100	NC(=S)c1cc(-c2ccc(O)cc2)ccn1
20 to 100	NC(=S)c1cccc(-c2cn(CO)c3ccccc23)c1
> 100	COc1ccccc1-c1cccc(C(N)=S)c1
20 to 100	NC(=S)c1cccc(-c2cn(CCO)c3cc(N)ccc23)c1
> 100	NC(=S)c1cc(-c2ccc(O)cc2)cs1
< 20	NC(=S)c1cccc(-c2cn(CC(F)(F)F)c3cc(N)ccc23)c1
> 100	Cc1cc(-c2cccc(C(N)=S)c2)ccc1O
20 to 100	CC(O)Cn1cc(-c2cccc(C(N)=S)c2)c2ccccc21 (centres undefined)
< 20	CC(O)c1ccc2c(-c3cccc(C(N)=S)c3)cn(CC(CF)CF)c2c1 (centres undefined)
< 20	NC(=S)c1cccc(-c2cn(Cc3cnc[nH]3)c3cc(CO)ccc23)c1
> 100	Cc1ccc(C(N)=S)cc1-c1ccc(O)cc1
< 20	NC(=S)c1cccc(-c2ccc(CCC(F)F)c3[nH]cnc23)c1

IC50 [µM]	Structure (SMILES)
> 100	NC(=S)c1cccc(-c2ccc(O)cc2)n1
> 100	Cc1cc(O)ccc1-c1cncc(C(N)=S)c1
> 100	NC(=S)c1ccc2cc[nH]c2c1
36	NCc1ccc2c(-c3cccc(C(N)=S)c3)c[nH]c2c1
> 100	Cc1cc2c(-c3cccc(C(N)=S)c3)cccc2[nH]1
> 100	NC(=S)c1cc(-c2c[nH]c3ccccc23)ccc1N
> 100	NC(=S)c1cccc(-c2ccc(O)cc2)c1
20 to 100	NC(=S)c1cccc(-c2cc(C(F)(F)F)cc3c2ccn3CCO)c1
< 20	CSCCn1cc(-c2cccc(C(N)=S)c2)c2ccc(N)cc21
> 100	NC(=S)c1cccc(-c2ccc(O)cc2F)c1
> 100	NC(=S)c1cccc(-c2c[nH]c3cnc(N)cc23)c1
20 to 100	COCc1cc2c(-c3cccc(C(N)=S)c3)cccc2n1C
< 20	NC(=S)c1cccc(-c2cn(CC(O)CO)c3cc(N)ccc23)c1 (centres undefined)
< 20	NC(=S)c1cccc(-c2cn(CCC(F)F)c3cc(N)ccc23)c1
> 100	NC(=S)c1cccc(-c2ccc(O)cc2)c1F
> 100	CSCCn1cc(-c2cccc(C(N)=S)c2)c2ccccc21
20 to 100	Cn1ccc2c(-c3cccc(C(N)=S)c3)cccc21
> 100	NC(=S)c1cccc(-c2ccc(S(N)(=O)=O)cc2)c1
> 100	NC(=S)c1cccc(-c2cccc3[nH]c(CNCCCO)cc23)c1
> 100	CNc1ccc(-c2cccc3[nH]ccc23)cc1C(N)=S

More lines, now with the values behind:

Structure (SMILES)	IC50 [µM]
NC(=S)c1cccc(-c2cn(CCC(F)(F)F)c3cc(N)ccc23)c1	< 20
NC(=S)c1cccc(-c2cn(CC(=O)C(F)(F)F)c3cc(CO)ccc23)c1	< 20
NC(=S)c1cccc(-c2cn(C3CCN(S(=O)(=O)CCCCCc4cccc5c4C(=O)N(C4CCC(=O)NC4=O)C5=O)CC3)c3cc(CNc4nnc(N)s4)ccc23)c1 (centres undefined)	< 20
NC(=S)c1cccc(-c2cn(CC(O)C(F)(F)F)c3cc(CO)ccc23)c1 (centres undefined)	< 20
CCCS(=O)(=O)N1CCC(n2cc(-c3cccc(C(N)=S)c3)c3ccc(CNC(=O)Cc4c[nH]cn4)cc32)CC1	< 20
NC(=S)c1cccc(-c2cn(C3CCOCC3)c3cc(CNC(=O)Cc4c[nH]cn4)ccc23)c1	< 20
NC(=S)c1cccc(-c2cn(CC(CO)(C(F)F)C(F)F)c3cc(C(O)CC(F)F)ccc23)c1 (centres undefined)	< 20
NC(=S)c1cccc(-c2cn(CC(CF)C(F)F)c3cc(N)ccc23)c1 (centres undefined)	< 20
NC(=S)c1cccc(-c2cn(CCCC(F)(F)F)c3cc(CNC(=O)c4c[nH]cn4)ccc23)c1	< 20
CS(=O)(=O)N1CCC(n2cc(-c3cccc(C(N)=S)c3)c3ccc(CNC(=O)C4CNC4)cc32)CC1	< 20
NC(=S)c1cccc(-c2cn(CCCC(F)(F)F)c3cc(CN4CCOCC4)ccc23)c1	20 to 100
CC(C)(C)OC(=O)Nc1nc(CC(=O)NCc2ccc3c(-c4cccc(C(N)=S)c4)cn(CCCC(F)(F)F)c3c2)cs1	< 20
NC(=S)c1cccc(-c2cn(CC(C(F)F)C(F)F)c3cc(C(O)CCF)ccc23)c1 (centres undefined)	< 20
NC(=S)c1cccc(-c2cn(CCCC(F)(F)F)c3cc(CNC(=O)c4csc(N)n4)ccc23)c1	< 20
NC(=S)c1cccc(-c2cn(CC(CF)CF)c3cc(CNCCOCCOCCOCCNc4cccc5c4C(=O)N(C4CCC(=O)NC4=O)C5=O)ccc23)c1 (centres undefined)	< 20
NC(=S)c1cccc(-c2cn(CC(C(F)F)C(F)F)c3cc(CO)ccc23)c1	< 20
NC(=S)c1cccc(-c2cn(CC3OCCO3)c3cc(N)ccc23)c1	20 to 100
NC(=S)c1cccc(-c2cn(C3CCOCC3)c3cc(SCCO)ccc23)c1	< 20
NC(=S)c1cccc(-c2cn(CC3CC(F)C(F)C3)c3cc(CO)ccc23)c1 (centres undefined)	< 20
NC(=S)c1cccc(-n2cc(CC(CF)CF)c3cc(N)ccc32)c1	< 20
NC(=S)c1cccc(-c2cn(C3CCN(S(N)(=O)=O)CC3)c3cc(N)ccc23)c1	< 20

Structure (SMILES)	IC50 [µM]
NC(=S)c1cc(-c2ccccc2)cs1	> 100
NC(=O)c1cc(-c2cn(CCC(F)F)c3cc(CO)ccc23)ccc1N	< 20
NC(=S)c1cccc(-c2cn(CCC(F)F)c3cc(NC(=O)CC4CC4)ccc23)c1	< 20
CS(=O)(=O)N1CCC(n2cc(-c3cccc(C(N)=S)c3)c3ccc(CNC(=O)Nc4cc[nH]n4)cc32)CC1	< 20
NC(=S)c1cccc(-c2cn(CC(CF)CF)c3cc(NC(=O)c4cnc[nH]4)ccc23)c1	< 20
CS(=O)(=O)N1CCC(n2cc(-c3cccc(C(N)=S)c3)c3ccc(CNC(=O)CC4CCNC4)cc32)CC1 (centres undefined)	< 20
NC(=S)c1cccc(-c2cn(CCCC(F)(F)F)c3cc(CNC(=O)Cc4csc(N)n4)ccc23)c1	< 20
NC(=S)c1cccc(-c2cn(CC(CF)CF)c3cc(CO)ccc23)n1	< 20
NCc1ccnc(-n2cccc2)c1	> 100
NC(=S)c1cccc(-c2cn(CC(CO)(C(F)F)C(F)F)c3cc(C(O)CCF)ccc23)c1 (centres undefined)	< 20
NC(=S)c1cccc(-c2cn(CC(CF)CF)c3cc(NCCc4c[nH]cn4)ccc23)c1	< 20
NCc1ccc2c(c1)c(CC(CF)CF)cn2-c1cccc(C(N)=S)c1	< 20
CCCS(=O)(=O)N1CCC(n2cc(-c3cccc(C(N)=S)c3)c3ccc(CNc4ncc(N)s4)cc32)CC1	< 20
NC(=S)c1cc(-c2cn(CCC(F)F)c3cc(CO)ccc23)c2[nH]ccc2c1	< 20
NC(=S)c1cccc(-c2cc(CC(CF)CF)c3[nH]ccc3c2)c1	< 20
NC(=S)c1ccnc(-c2cn(CCC(F)F)c3cc(CO)ccc23)c1	< 20
NC(=S)c1cccc(-c2cn(C3CCN(S(=O)(=O)C(F)(F)F)CC3)c3cc(CNC(=O)Cc4ccc[nH]4)ccc23)c1	< 20
NC(=O)c1cc(-c2cn(CCC(F)F)c3cc(CO)ccc23)ccc1O	< 20
NC(=S)c1cccc(-c2cn(CCC(F)F)c3cc(C(F)F)ccc23)c1	< 20
NC(=S)c1cccc(-c2cccc3[nH]ccc23)c1O	> 100
NC(=S)c1cccc(-c2cn(CC(F)(F)F)c3cc(NCC(F)(F)F)ccc23)c1	< 20

Structure (SMILES)	IC50 [µM]
NC(=S)c1cccc(-c2ccc(OCCOCCNC(=O)c3ccc(-c4c5ccc(=O)cc-5oc5cc(O)ccc45)c(C(=O)O)c3)c3[nH]ccc23)c1	> 100
CCCn1cnc(CC(=O)NCc2ccc3c(-c4cccc(C(N)=S)c4)cn(C4CCN(S(=O)(=O)CCC)CC4)c3c2)c1	< 20
NC(=S)c1cccc(-c2cn(CCC(F)F)c3cc(CO)c(F)cc23)c1	< 20
NC(=S)c1cccc(-c2cc(C(F)(F)F)cc3c2ccn3CC(F)(F)F)c1	20 to 100
NC(=S)c1cccc(-c2cn(CC(CO)C(F)F)c3cc(CO)ccc23)c1 (centres undefined)	< 20
NC(=S)c1cccc(-c2cn(CC3(C(F)(F)F)CC3)c3cc(N)ccc23)c1	< 20
NC(=S)c1cccc(-c2cn(CCC(F)F)c3cc(CNCCOCCOCCOCCNc4cccc5c4C(=O)N(C4CCC(=O)NC4=O)C5=O)ccc23)c1 (centres undefined)	< 20
NC(=S)c1cccc(-c2cn(C3CCCCC3O)c3cc(CO)ccc23)c1 (centres undefined)	< 20
NC(=S)c1cccc(-c2cn(CCC(F)F)c3cc(CNS(=O)(=O)C(F)(F)F)ccc23)c1	< 20
CCCS(=O)(=O)N1CCC(n2cc(-c3cccc(C(N)=S)c3)c3ccc(CNC(=O)CCCCc4cccc5c4C(=O)N(C4CCC(=O)NC4=O)C5=O)cc32)CC1 (centres undefined)	< 20
NC(=S)c1cccc(-c2cccc3[nH]c(CSP(=S)(c4ccccc4)c4ccccc4)cc23)c1	> 100
NC(=S)c1nccs1	> 100
NC(=S)c1cccc(-c2ccc(OCCOCCNC(=O)CCCCCNC(=O)c3ccc4c(c3)C(=O)OC43c4ccc(O)cc4Oc4cc(O)ccc43)c3[nH]ccc23)c1	> 100
CCNc1c[nH]c(CC(=O)NCc2ccc3c(-c4cccc(C(N)=S)c4)cn(C4CCN(S(C)(=O)=O)CC4)c3c2)c1	< 20
CCCS(=O)(=O)N1CCC(n2cc(-c3cccc(C(N)=S)c3)c3ccc(N)cc32)CC1	< 20
NC(=S)c1cccc(-c2cn(CCC(F)F)c3cc(N4CCOCC4)ccc23)c1	< 20
NC(=S)c1cccc(-n2cc(N3CCCCC3)c3cc(CO)ccc32)c1	< 20
OCc1ccc2c(-c3cccc4c3CNC4=S)cn(CCC(F)F)c2c1	< 20
NC(=S)c1cccc(-c2cn(CCCC(F)(F)F)c3cc(CNCc4cccnc4)ccc23)c1	< 20
CS(=O)(=O)NCc1ccc2c(-c3cccc(C(N)=S)c3)cn(CCCC(F)(F)F)c2c1	< 20
CS(=O)(=O)N1CCC(n2cc(-c3cccc(C(N)=S)c3)c3ccc(CNC(=O)Cc4[nH]cc5ccccc45)cc32)CC1	< 20
